Source: patent US20260151398A1, “COMPOUNDS FOR REDUCING CHOLESTEROL AND TREATING LIVER AND KIDNEY DISEASE” (McMaster University, priority 2021, published 2026)
“Also recorded” adds a separate entry of the source.

Columns and labels:
[1] = tested on: C57BL/6J mice; experiment: Mouse studies: circulating PCSK9, triglycerides, ApoB and hepatic markers; type: in vivo
Method: Liver tissues were fixed in formaldehyde and subsequently embedded in paraffin for sectioning. […] Slides were then exposed to biotin-conjugated secondary antibodies for 45 minutes and then streptavidin peroxidase for 10 minutes. Staining was visualized using the Nova Red HRP Substrate (Vector Laboratories).
Mouse PCSK9 was measured using the Quantikinine® ELISA kit (#MCP900, R&D Systems) and human PCSK9 using the PCSK9 Quantikinine® ELISA kit (#DCP900, R&D Systems). Serum ApoB levels were also quantified using ELISAs (#DAPB00, R&D Systems). Serum samples were diluted as per manufacturer's instructions.
All animal studies were carried out in 8 h-fasted male wild-type, Pcsk9^−/− or Ampkβ1^−/− mice on the C57BL/6J background. CF (25-100 mg/kg-8 h) and CDN (50 mg/kg) treatments were administered via intraperitoneal injection unless specified otherwise. Primary mouse hepatocytes were isolated using a two-step process with EGTA ([…] in HEPES buffer, Sigma Aldrich) and collagenase (0.05% in HEPES buffer, Sigma Aldrich) in 12-week-old male mice on the C57BL/6J background. Cells were then washed, centrifuged, and plated following isolation in cell strainers. Hepatosure® 100-donor pooled primary human hepatocytes were purchased from Xenotech. Primary hepatocytes were regularly grown in William's E medium (Gibco, Thermo Fisher Scientific) containing 10% fetal bovine serum, 100 IU/ml penicillin, and 100 µg/ml streptomycin.
Next, the effect of CF on PCSK9 expression/secretion and ER stress marker expression was assessed in mice. […] Immunohistochemical staining intensities were quantified using ImageJ Software (FIG. 9 E).

[2] = tested on: PCSK9; experiment: PCSK9 expression in hepatocytes (immunoblot, real-time PCR); type: cell-based, human, mouse
Method: HuH7 and HepG2 cells were routinely grown in complete Dulbecco's Modified Eagle's Medium (Gibco, Thermofisher Scientific) supplemented with 10% fetal bovine serum (Sigma-Aldrich) and 100 U/ml of penicillin and streptomycin (Sigma-Aldrich). […] All cell treatments were carried out for 24 h unless otherwise stated. Cells were transfected with a cocktail consisting of plasmid DNA (1 μg), X-tremeGENE HP (3 μl; Thermofisher Scientific) and opti-MEM (100 μl; Thermofischer Scientific) per 1 ml complete medium containing plated cells. Human PCSK9 was overexpressed using the bicistronic pIRES-EGFP plasmid; calnexin using the mPA-GFP-N1 plasmid. To block the expression of GRP78 and CD36, siGENOME smartpool siRNA was purchased from GE Dharmacon (M-008198-02 and L-010206-00-0005 respectively) and transfected using lipofectamine RNAiMAX as per manufacturer's protocol.
(§1) Cells were washed in phosphate-buffered saline (PBS), lysed in 4× SDS-PAGE lysis buffer and separated on 7-10% polyacrylamide gels in denaturing conditions. Gels were transferred to nitrocellulose membranes using the BioRad mini trans-blot system, blocked in 5% skim milk in tris-buffered saline (TBS) for 1 h and incubated in primary antibody overnight for 16 h at 4° C. Membranes were then exposed to horse radish peroxidase conjugated secondary antibodies and visualized using EZ-ECL chemiluminescent reagent (Froggabio). Band intensities were quantified using ImageJ software ([…]) against membranes reprobed for housekeeping proteins.
(§2) RNA purification/isolation was performed using RNeasy mini kits (Qiagen) and normalized to 2 μg RNA using a NanoDrop® spectrophotometer. Samples were then reverse transcribed into cDNA using Superscript Vilo cDNA Synthesis kit (Thermofisher Scientific). Real-time PCR was executed with Fast SYBR Green (Thermo Fisher Scientific) using the ΔΔct method on the ViiA7 real-time PCR platform (Thermofisher Scientific).
Cultured immortalized hepatocytes known to express and secrete PCSK9 (Lebeau, P., et al., 2017), including HuH7 and HepG2 cells, as well as primary mouse- and human-hepatocytes (PMH and PHH, respectively), were treated with CF for 24 h and assessed for PCSK9 expression via immunoblots and real-time PCR (FIG. 1 A to D). […] Given that sterol deprivation represents another well-established promoter of SREBP2 activation (Lebeau, P., et al., 2017), cells were also treated with CF in the presence and absence of U18666A (U18) that depletes intracellular sterols. […] Next, HepG2 cells were treated with an increasing dose of CF.

[3] = tested on: calnexin; experiment: Calnexin protein expression in HuH7 cells (immunoblot); type: cell-based, human
Method: as §1
Among the many intracellular effects of CF on the cell, its ability to increase intracellular Ca^2+ levels is well-studied (Echeverri, D., et al., 2010). […] ER Ca^2+ levels were then examined in cells transfected with D1ER; a genetically-encoded ER-resident fluorescence resonance energy transfer (FRET)-based […] chameleon Ca^2+ sensor, which increases in fluorescence intensity upon Ca^2+ binding (Palmer, A. E., et al., 2004). The low-affinity Ca^2+ indicator, Mag-Fluo-4, was also utilized for the direct assessment of ER Ca^2+ and increases in fluorescence intensity upon Ca^2+ binding (Diercks, B. P., et al., 2017; Lebeau, P., et al., 2021). […] ER Ca^2+ content was also assessed indirectly with the high affinity Ca^2+ dye, fura-2-AM (FIG. 6 B). […]

[4] = tested on: HMGR, SREBP1, hepatocyte nuclear factor 1α; experiment: mRNA expression of HMGR, SREBP1 and hepatocyte nuclear factor 1α in hepatocytes; type: cell-based, mouse
Method: as §2
Therefore, the effect of CF on TG-; induced SREBP2 activation was examined. […] SREBP2 activity was then examined at the protein level in HuH7 cells transfected with a plasmid encoding GFP driven by the sterol regulatory element (SRE-GFP; FIG. 2E to G). […] GFP expression was also visualized via immunofluorescent staining and quantified using ImageJ Software.

[5] = 18-week-old C57BL/6J mice, CF 30 mg/kg every 24 hours for 14 days

Row | Structure (SMILES) | hepatic LDLR expression (CDN) ([1]; mice, 50 mg/kg, IP, 8 h) | SREBP2 and PCSK9 mRNA transcript level ([2]; HuH7, ryanodine 10 μM, CDN 100 μM, 2 APB 50 μM, presence or absence of TG, 24 h) | PCSK9 and SREBP2 expression on ER Ca2+ depletion ([2]; HuH7, TG 100 nM, CPA 10 μM) | calnexin protein expression [3] | serum Apolipoprotein B (ApoB) [1, 5] | serum PCSK9 after daily dosing [1, 5] | circulating PCSK9 levels after oral gavage ([1]; mice, CF 20 mg/kg oral gavage, listed as CF) | circulating PCSK9 levels ([1]; mice, CF 50 mg/kg IP, 8 h) | circulating triglyceride levels ([1]; mice, CF 50 mg/kg IP, 8 h) | time required to significantly reduce plasma PCSK9 ([1]; mice, time-course) [h] | hepatic expression of UPR markers / chaperones ([1]; mouse liver, CF 50 mg/kg, 8 h, listed as CF) | TG-induced PCSK9 expression ([2]; CF 200 μM with thapsigargin 100 nM, 24 h) | PCSK9 mRNA and secreted protein in presence of ActD ([2]; HepG2 pre-treated with actinomycin D) | PCSK9 and SREBP2 mRNA and secreted PCSK9 in presence of siGRP78 ([2]; HepG2 transfected with siGRP78) | PCSK9 protein and mRNA transcript levels ([2]; HuH7, HepG2, PMH, PHH, 24 h, listed as CF) | U18-induced PCSK9 expression ([2]; HuH7, CF 200 μM with U18 10 μM, 24 h) | SREBP1 expression ([4]; PMH) | hepatocyte nuclear factor 1α expression ([4]; absence of TG) | HMGR expression ([4]; mouse hepatocytes)
1 | Cc1ccc2cccc(NC(=O)c3ccc(OC(C)C)cc3)c2n1 [CDN] | increased hepatic LDLR expression | blocked SREBP2 and PCSK9 at the mRNA transcript level | – | – | – | – | – | – | – | – | – | – | – | – | – | – | – | – | –
2 | C/C=C(/C)C(=O)O[C@H]1C(C)=C2[C@H]([C@@H]1OC(=O)CCCCCCC)[C@@](C)(OC(C)=O)C[C@H](OC(=O)CCC)[C@@]1(O)[C@H]2OC(=O)[C@@]1(C)O [TG, thapsigargin] | – | – | increased PCSK9 and SREBP2 expression | blocked | – | – | – | – | – | – | – | – | – | – | – | – | – | – | –
3 | Cn1c(=O)c2c(ncn2C)n(C)c1=O [caffeine, 1,3,7-Trimethylxanthine] | – | – | – | induced | reduction | reduction | reduced circulating PCSK9 levels; also recorded: reduces plasma PCSK9 levels | significant reduction | significant reduction | 4 | reduced the expression of UPR markers; also recorded: reduces chaperone expression | attenuated PCSK9 expression | failure of CF to block PCSK9 mRNA | failed to attenuate PCSK9 and SREBP2 mRNA expression or secreted PCSK9 levels | reduced protein and mRNA transcript levels of PCSK9; also recorded: blocks PCSK9 expression | attenuated U18-induced PCSK9 expression | blocked the expression | did not yield a significant difference | blocked the expression
